This note sets out measurements from patent US20260144815A1, “BLOOD COAGULATION TIME SHORTENING AGENT FOR BLOOD SPECIMEN DEFICIENT IN COAGULATION FACTOR XII” (SEKISUI MEDICAL CO., LTD., priority 2022, published 2026).

In this assay the test system is FXII-deficient specimens. Kind of assay: Test 2: APTT coagulation time measurement of FXII-deficient specimens, zinc chloride basic prescription. It counts as biochemical, human. The settings on record: metal salt used instead of zinc chloride in combination with the polymer. The text has this:
The following specimens were used: • FXII-deficient specimens (specimens derived from FXII-deficient patients, N=3).
The prescription was the same as that in the test 1 except that copper sulfate pentahydrate in the first reagent (R1) was changed to zinc chloride.
In the control, LIPIDURE (R) was not added.
Test reagents 5-1 to 5-3: zinc chloride in R1 of the basic prescription was changed to the metal salt compound shown in Table 5, and LIPIDURE (R)-BL205 was further added. As the control, the test reagent 4-1 was used.
R1 and R2 were prepared by the same procedure as in the test 1, the coagulation time (APTT) was measured, and the variation rate (%) of APTT with the test reagent with respect to the control was determined.

Regarding `O.O.O.O.[Cl][In]([Cl])[Cl]` [indium (III) chloride tetrahydrate], the “coagulation time of FXII-deficient specimens” value is “further shortened”.

Consider `O.O.O.O.[Cl][Mn][Cl]` [manganese (II) chloride tetrahydrate], for which the “coagulation time of FXII-deficient specimens” value is reported as “further shortened”.
